Here are results for three molecules from patent publication US20100173845A1, “USE OF FERTIRELIN AND DELTA-ENDORPHIN AS THERAPEUTIC AGENTS” (priority 2007, published 2010).

Where a SMILES comes first, the peptide text is derived from it. Where no end group is shown, it is not given here. [ ]: non-standard residue; d: D form. pGlu = O=C1CC[C@@H](C(=O)O)N1

Test [1] has as its system HCMV strain AD169. The experiment in a line: HCMV plaque formation assay in MRC-5 cells. The conditions noted are these: for inhibition of HCMV plaque formation as compared to the virus control experiment: 10 micrograms per ml, 7-10 days, MRC-5 cells.
Test [2] concerns hepatitis B virus (HBV) ayw strain. The test can be described thus: HBV assay, secreted HBV DNA by TaqMan PCR in HepG2-2.2.15 cells. The test is classed as cell-based. The conditions noted are these: 10 micrograms per ml; six days; HBV DNA in supernatant. (In general: In qPCR the cycle at which signal appears reflects the starting amount.)
Test [3] relates to Primary Human endothelial cells (HUVEC). The experiment in a line: Endothelial cell migration assay. The test is classed as cell-based. As to conditions: 10 micrograms per ml; 22 hours. The method, then: Thereafter, designated concentration of testing peptides−10 micrograms per ml−was added in duplicate wells.
Test [4] has as its system HUVEC. The test can be described thus: Endothelial tube formation assay. The test is classed as cell-based, human. The conditions noted are these: 10 micrograms per ml; 20 hours. An excerpt:
[…] control wes vehicle only. […] Raw data were expressed as average tubule lenghs in pixels±standard deviation.

Test [5] concerns murine spleen cells. The experiment in a line: Th1/Th2 cytokine profiling assay (Ovalbumin-restimulated spleen cells, CBA kit). The conditions noted are these: 10 micrograms per ml, 72 hours; for production of IL-5, decreased by: numbers are decreases; for production of IL-5, decreased by / production of IFN-y, induced/increased by / production of IL-2, induced/increased by / production of TNF-alpha, induced by (increase): words state no change; for production of IFN-y, induced/increased by / production of IL-2, induced/increased by / production of TNF-alpha, induced by (increase): numbers are increases. The test is classed as cell-based, Balb/c mice.
From the text: The Balb/c mice (originated in 1923, it is a popular strain and is used in many different research disciplines. Also classified as an inbred from the production of 20 or more successive brother-sister matings, the Balb/c mouse is albino and small in size) were immunized on Days 1, 15, and 29 with Ovalbumin (Ovalbumin is the main protein found in egg white, commonly used to stimulate an immunological reaction in test animals) in PBS (5 micrograms/injection). On day 50, spleens of the mice were harvested (3 weeks after last boost with Ovalbumin). Cells were cultured (2×10^5/well in triplicate) and incubated with culture medium or test peptides−10 micrograms per ml−for 30 min. Thereafter, additional Ovalbumin was added to the cells at 10 micrograms/ml for in vitro restimulation of the cells. 72 hours later, cell supernatants were harvested and assayed using the Becton Dickinson Mouse Th1/Th2 Cytokine CBA Kit. This kit can be used to measure Interleukin-2 (IL-2), Interleukin-4 (IL-4), Interleukin-5 (IL-5), Interferon-γ (IFN-γ), and Tumor Necrosis Factor-α (TNF-α) protein levels in a single sample.

In the case of `Nc1nc(O)c2ncn(COC(CO)CO)c2n1` [Ganciclovir, reference compound], in test [1] (HCMV in MRC-5 cells), the “antiviral activity of positive control compound” value is on record as “expected levels of antiviral activity”.
Take `CCNC(=O)[C@@H]1CCCN1C(=O)[C@H](CCCNC(=N)N)NC(=O)[C@H](CC(C)C)NC(=O)CNC(=O)[C@H](Cc1ccc(O)cc1)NC(=O)[C@H](CO)NC(=O)[C@H](Cc1c[nH]c2ccccc12)NC(=O)[C@H](Cc1c[nH]cn1)NC(=O)[C@@H]1CCC(=O)N1` [Peptide 1] ([pGlu]HWSYGLRP-NHEt): the “inhibition of HBV replication as compared to the virus control infection” value in test [2] was found to be 47.1%. Besides, the “inhibition of the migration of human endothelial cells” value in test [3] was 26%. Further, the “inhibition of HCMV plaque formation as compared to the virus control experiment” value in test [1] was found to be 2.1%. Besides, the “inhibition of the tube formation of human endothelial cells” value in test [4] was 11%. The “production of IL-4, induced/increased by” value in test [5] (increase) is reported as 139.7%. Besides, in test [5], the “production of IL-5, decreased by” value is “did not significantly change”; the “production of IFN-y, induced/increased by” value is on record as 114.7%; the “production of IL-2, induced/increased by” value worked out at 168.2%; the “production of TNF-alpha, induced by (increase)” value was determined as 27.5%.
Consider YGGFMTSEKSQTPLVTLFKNAIIKNAY [Peptide 2], for which the “inhibition of HBV replication as compared to the virus control infection” value in test [2] is on record as 0%. Besides, in test [3], the “inhibition of the migration of human endothelial cells” value is reported as “no effect”. Moreover, in test [1], the “inhibition of HCMV plaque formation as compared to the virus control experiment” value turned out to be 0.7%. In addition, the “inhibition of the tube formation of human endothelial cells” value in test [4] was found to be 11%. In test [5] (decrease), the “production of IL-4, decreased by” value was determined as 31.5%. Besides, in test [5], the “production of IL-5, decreased by” value is 48.1%; the “production of IFN-y, induced/increased by” value was “did not significantly change”; the “production of IL-2, induced/increased by” value is “did not significantly change”; the “production of TNF-alpha, induced by (increase)” value is recorded as “did not significantly change”.
